Source: patent US20210121456A1, “USE OF METHYLNALTREXONE TO ATTENUATE TUMOR PROGRESSION” (Salix Pharmaceuticals, Inc., priority 2014, published 2021)

Tests used:
[1] = system: cancer subjects with opioid-induced constipation (tumor disease progression); test: Pooled analysis of Study 1 and Study 2: adverse events of disease progression; format: in vivo, human
Excerpt: As part of the routine adverse event (AE) evaluations filled out by all investigators in the studies described in Examples 1 and 2, AEs of tumor progression were tabulated. Both studies were randomized, placebo-controlled trials that involved a 2-week treatment period followed by a 2-week follow-up period. The enrolled subjects were advanced illness (incurable cancer or other end-stage disease) subjects with OIC who were receiving stable doses of laxatives and opioid analgesics. In the context of the study, a stable dose of opioid analgesics was defined as no reduction in the dose of opioid analgesic of ≥50% for at least three days before the first dose of MNTX. A stable dose of laxatives was defined as having a standing laxative order (and not PRN, or as-needed) for at least three days before the first dose of MNTX. A diagnosis of constipation was provided if the subject had (a) fewer than 3 bowel movements during the previous week by history and no clinically notable laxation in the 24 hours before the first dose of MNTX, or (b) no clinical notable laxation in the 48 hours before the first dose of MNTX. In Study 1 (Example 1), subjects received subcutaneous MNTX 0.15 mg/kg or placebo (PBO) every other day (QOD), and in Study 2 (Example 2) subjects received subcutaneous MNTX (8 mg or 12 mg based on body weight 38 to <62 kg or ≥62 kg, respectively) or placebo administered QOD. The 12 mg fixed dose was designed to correspond to the 0.15 mg/kg weight-based dose. Rescue-laxatives, enemas or manual disimpactions were not administered within 4 hours before or after each dose of MNTX. For the purpose of this analysis, only subjects with a cancer-related diagnosis were considered. For statistical significance testing, the Fisher's exact test was used (p<0.05).
Table 1 and FIG. 1 provide AEs of disease progression in the pooled analysis and for each individual study during the double-blind phase of the studies.
Furthermore, when the pool of MNTX-treated subjects across both studies was examined, there was a significant decrease in the percentage of subjects with disease progression between subjects who responded to MNTX treatment and those who were considered non-responders. A subject with laxation within 4 hours after two of the first four doses of MNTX was considered a responder.
For the analysis carried out in this Example and in Example 3, a subject with laxation occurring from 0-4 hours after two of the first four doses of MNTX was considered a MNTX responder or responsive subject. Data for placebo patients who elected to participate in the open-label MNTX treatment phase was collected from the first 4 doses of open-label treatment. Data for the MNTX-treated patients was collected from the first 4 doses of the double-blind phase of the study.

[2] = system: Lewis lung cancer model; conditions: infusion of MNTX; cited from earlier work

C[N@+]1(CC2CC2)CC[C@]23c4c5ccc(O)c4O[C@H]2C(=O)CC[C@@]3(O)[C@H]1C5.[Br-] [MNTX, (R)—N-(cyclopropylmethyl) noroxymorphone methobromide]
Adverse Events of Disease Progression, n/N ([1]; Combined (Study 1 & Study 2), double-blind phase, cancer subjects): 16/116 | % Progression ([1]; MNTX Non-Responders): 22.0% | Disease Progression (number of subjects) ([1]; MNTX Non-Responders): 11 | No Disease Progression (number of subjects) ([1]; MNTX Non-Responders): 39 | % Progression ([1]; MNTX Responders): 7.6% | No Disease Progression (number of subjects) ([1]; MNTX Responders): 61 | Disease Progression (number of subjects) ([1]; MNTX Responders (laxation within 4 hours after two of the first four doses)): 5 | No Disease Progression (number of subjects) ([1]; MNTX Total): 100 | Disease Progression (number of subjects) ([1]; MNTX Total, pooled): 16 | Adverse Events of Disease Progression, % ([1]; Study 1, double-blind phase): (16.2%) | Adverse Events of Disease Progression, n/N ([1]; Study 1, double-blind phase): 6/37 | Adverse Events of Disease Progression, % ([1]; Study 2, double-blind phase): (12.7%) | Adverse Events of Disease Progression, n/N ([1]; Study 2, double-blind phase): 10/79 | reduction in the incidence of AE of disease progression versus placebo ([1]; pooled analysis): ~46% | tumor growth and metastasis [2]: dramatically reduced growth and metastasis
